From patent US20110152252A1 (priority 2007, published 2011)
Where two headings read alike, the source gives them in different places.

Legend:
[1] = test system: Gb3-expressing HT-29 cells; test: cells; type: cell-based
[2] = test system: periampular tumors in APC^1638N mice; details: mouse, in vivo
[3] = target: mitochondrial peripheral benzodiazepine receptor, mPBR (Homo sapiens, UniProt P30536); details: cited from earlier work
Sequence of mitochondrial peripheral benzodiazepine receptor, mPBR (P30536 whole entry): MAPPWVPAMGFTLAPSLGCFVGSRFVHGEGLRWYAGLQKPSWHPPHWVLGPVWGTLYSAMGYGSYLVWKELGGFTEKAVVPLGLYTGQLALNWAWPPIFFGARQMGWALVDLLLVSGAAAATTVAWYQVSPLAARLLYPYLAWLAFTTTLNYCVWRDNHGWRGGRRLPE

Question: Which IC50 ([1]; Homo sapiens, HT-29) does the source give for `CCc1c2c(nc3ccc(OC(=O)N4CCC(N5CCCCC5)CC4)cc13)-c1cc3c(c(=O)n1C2)COC(=O)[C@]3(O)CC` [CPT11] here?
Answer: 70000 nM

Question: And the “inflammatory reaction in the periampular region (pathology)” value [2]?
Answer: weak and very moderate inflammatory reaction

Question: What about the “tumor growth / development of periampular tumors” value [2] of the same compound?
Answer: periampular tumors developed

Question: And the “tumor lesions detected (pathology)” value [2]?
Answer: high-grade adenomas and carcinomas could be detected

Question: For RO5-4864, which Ki [3] is on record?
Answer: 23 nM

Question: With SN-38 as the compound, how does the IC50 ([1]; read-out: IC50) read?
Answer: 30 nM
